US9833455B2, “Preparation and methods of use for ortho-aryl 5-membered heteroaryl-carboxamide containing multi-targeted kinase inhibitors” (Spacefill Enterprises LLC, priority 2011, dated 2017)
Read-outs that look alike come from different tables or passages of the source. Blank lines part the entries; values can stand above or below the compound they belong to.

Experiments:
[1] = molecular target: EPH-B4 (Homo sapiens, UniProt P54760); experiment: Nanosyn kinase profiling, % inhibition; format: biochemical; settings: panel of 230 kinases
Procedure: (§1) “Inhibiting kinase activity” means to decrease the production of an phosphor-peptide by a particular kinase that can be separated by analytical techniques. For example, a comprehensive platform of kinase, protease, phosphatase and epigenetic assays that utilizes cutting-edge microfluidics and informatics tools to provide accurate and rapid results. Profiling data in this application were determined using these techniques at Nanosyn Inc. IC50 data were provided by Reaction Biology Inc using a P33 radiolabeled kinase assay.
(§2) More modest activity for Aurora-A, FLT-1/4, KDR, KIT, PDGFRs was accompanied by better activity for B-Raf mutant and wild-type forms, Modest inhibition of MEK-1, BTK, c-Met, RET, and RON was also observed. […] Moreover, the observed inhibition of MEK-1 with 1-12 and TYK2 with I-6 represents additional activities against kinases for which no type-II inhibitors have been reported to date. […] To further evaluate the scope of inhibition, I-6 was evaluated against a larger panel of 230 kinases, Table-22.

[2] = molecular target: EPH-A4 (Homo sapiens, UniProt P54764); experiment: Nanosyn kinase profiling, % inhibition; format: biochemical; settings: panel of 230 kinases
Procedure: as §1, §2

[3] = molecular target: PTK5 (Homo sapiens, UniProt P42685); experiment: Nanosyn kinase profiling, % inhibition; format: biochemical; settings: panel of 230 kinases
Procedure: as §1, §2

[4] = molecular target: BLK (Homo sapiens, UniProt P51451); experiment: Nanosyn kinase profiling, % inhibition; format: biochemical; settings: panel of 230 kinases
Procedure: as §1, §2

[5] = molecular target: SPHK1 (Homo sapiens, UniProt Q9NYA1); experiment: Nanosyn kinase profiling, % inhibition; format: biochemical; settings: panel of 230 kinases
Procedure: as §1, §2

[6] = molecular target: EPH-A3 (Homo sapiens, UniProt P29320); experiment: Nanosyn kinase profiling, % inhibition; format: biochemical; settings: panel of 230 kinases
Procedure: as §1, §2

[7] = molecular target: MAP4K5 (Homo sapiens, UniProt Q9Y4K4); experiment: Nanosyn kinase profiling, % inhibition; format: biochemical; settings: panel of 230 kinases
Procedure: as §1, §2

[8] = molecular target: MAP4K2 (Homo sapiens, UniProt Q12851); experiment: Nanosyn kinase profiling, % inhibition; format: biochemical; settings: panel of 230 kinases
Procedure: as §1, §2

[9] = molecular target: MER (Homo sapiens, UniProt Q12866); experiment: Nanosyn kinase profiling, % inhibition; format: biochemical; settings: panel of 230 kinases
Procedure: as §1, §2

[10] = molecular target: PAK1 (Homo sapiens, UniProt Q13153); experiment: Nanosyn kinase profiling, % inhibition; format: biochemical; settings: panel of 230 kinases
Procedure: as §1, §2

[11] = molecular target: LCK (Homo sapiens, UniProt P06239); experiment: Nanosyn kinase profiling, % inhibition; format: biochemical; settings: panel of 230 kinases
Procedure: as §1, §2

[12] = molecular target: YES (Homo sapiens, UniProt P07947); experiment: Nanosyn kinase profiling, % inhibition; format: biochemical; settings: panel of 230 kinases
Procedure: as §1, §2

[13] = molecular target: MNK2 (Homo sapiens, UniProt Q9HBH9); experiment: Nanosyn kinase profiling, % inhibition; format: biochemical; settings: panel of 230 kinases
Procedure: as §1, §2

[14] = molecular target: LYNB (Homo sapiens, UniProt P07948); experiment: Nanosyn kinase profiling, % inhibition; format: biochemical; settings: panel of 230 kinases
Procedure: as §1, §2

[15] = molecular target: TRKC (Homo sapiens, UniProt Q16288); experiment: Nanosyn kinase profiling, % inhibition; format: biochemical; settings: panel of 230 kinases
Procedure: as §1, §2

[16] = molecular target: FER (Homo sapiens, UniProt P16591); experiment: Nanosyn kinase profiling, % inhibition; format: biochemical; settings: panel of 230 kinases
Procedure: as §1, §2

[17] = molecular target: LOK (Homo sapiens, UniProt O94804); experiment: Nanosyn kinase profiling, % inhibition; format: biochemical; settings: panel of 230 kinases
Procedure: as §1, §2

[18] = molecular target: SIK (Homo sapiens, UniProt P57059); experiment: Nanosyn kinase profiling, % inhibition; format: biochemical; settings: panel of 230 kinases
Procedure: as §1, §2

[19] = molecular target: LYNA (Homo sapiens, UniProt P07948); experiment: Nanosyn kinase profiling, % inhibition; format: biochemical; settings: panel of 230 kinases
Procedure: as §1, §2

[20] = molecular target: ARG (Homo sapiens, UniProt P42684); experiment: Nanosyn kinase profiling, % inhibition; format: biochemical; settings: panel of 230 kinases
Procedure: as §1, §2

[21] = molecular target: TRKA (Homo sapiens, UniProt P04629); experiment: Nanosyn kinase profiling, % inhibition; format: biochemical; settings: panel of 230 kinases
Procedure: as §1, §2

[22] = molecular target: SRMS (Homo sapiens, UniProt Q9H3Y6); experiment: Nanosyn kinase profiling, % inhibition; format: biochemical; settings: panel of 230 kinases
Procedure: as §1, §2

[23] = molecular target: FGR (Homo sapiens, UniProt P09769); experiment: Nanosyn kinase profiling, % inhibition; format: biochemical; settings: panel of 230 kinases
Procedure: as §1, §2

[24] = molecular target: SPHK2 (Homo sapiens, UniProt Q9NRA0); experiment: Nanosyn kinase profiling, % inhibition; format: biochemical; settings: panel of 230 kinases
Procedure: as §1, §2

[25] = molecular target: EPH-A8 (Homo sapiens, UniProt P29322); experiment: Nanosyn kinase profiling, % inhibition; format: biochemical; settings: panel of 230 kinases
Procedure: as §1, §2

[26] = molecular target: HIPK3 (Homo sapiens, UniProt Q9H422); experiment: Nanosyn kinase profiling, % inhibition; format: biochemical; settings: panel of 230 kinases
Procedure: as §1, §2

[27] = molecular target: MEK2 (Homo sapiens, UniProt P36507); experiment: Nanosyn kinase profiling, % inhibition; format: biochemical; settings: panel of 230 kinases
Procedure: as §1, §2

[28] = molecular target: SRC (Homo sapiens, UniProt P12931); experiment: Nanosyn kinase profiling, % inhibition; format: biochemical; settings: panel of 230 kinases
Procedure: as §1, §2

[29] = molecular target: T1, Aurora A (Homo sapiens, UniProt O14965); experiment: Reaction Biology P33 radiolabeled kinase assay, IC50 and time dependence; format: biochemical; settings: for IC50: ATP 10 uM, read-out: Compound IC50* Aurora A
T1 construct: purchased Reaction Biology Inc (contract assay)
T1 sequence (O14965 1-403): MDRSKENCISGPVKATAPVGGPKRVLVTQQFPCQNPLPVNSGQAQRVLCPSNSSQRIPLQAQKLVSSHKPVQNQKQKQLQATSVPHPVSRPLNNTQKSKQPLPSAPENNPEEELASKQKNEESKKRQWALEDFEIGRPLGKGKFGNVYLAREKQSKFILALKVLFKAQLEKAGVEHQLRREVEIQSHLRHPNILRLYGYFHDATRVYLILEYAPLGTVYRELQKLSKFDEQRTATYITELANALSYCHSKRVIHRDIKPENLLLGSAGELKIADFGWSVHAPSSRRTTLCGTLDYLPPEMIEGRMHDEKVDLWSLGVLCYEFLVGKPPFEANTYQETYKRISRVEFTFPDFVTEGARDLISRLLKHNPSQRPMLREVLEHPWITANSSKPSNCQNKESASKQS
Procedure: as §1
The observation of potency and isoform selectivity with time-dependency for PI3K-γ appears to be unprecedented in the literature. In addition, these activities combined with inhibition of p38-α, Raf-1, DDR and CSF-1R, would be complimentary and potentially synergistic activities for both the treatment of certain inflammation based conditions and cancers.

[30] = molecular target: T2, FGFR3 (Homo sapiens, UniProt P22607); settings: 1 μM, duplicate, without preincubation; cited from earlier work
T2 construct: literature Ambit Biosciences

SRC, sequence (P12931 whole entry): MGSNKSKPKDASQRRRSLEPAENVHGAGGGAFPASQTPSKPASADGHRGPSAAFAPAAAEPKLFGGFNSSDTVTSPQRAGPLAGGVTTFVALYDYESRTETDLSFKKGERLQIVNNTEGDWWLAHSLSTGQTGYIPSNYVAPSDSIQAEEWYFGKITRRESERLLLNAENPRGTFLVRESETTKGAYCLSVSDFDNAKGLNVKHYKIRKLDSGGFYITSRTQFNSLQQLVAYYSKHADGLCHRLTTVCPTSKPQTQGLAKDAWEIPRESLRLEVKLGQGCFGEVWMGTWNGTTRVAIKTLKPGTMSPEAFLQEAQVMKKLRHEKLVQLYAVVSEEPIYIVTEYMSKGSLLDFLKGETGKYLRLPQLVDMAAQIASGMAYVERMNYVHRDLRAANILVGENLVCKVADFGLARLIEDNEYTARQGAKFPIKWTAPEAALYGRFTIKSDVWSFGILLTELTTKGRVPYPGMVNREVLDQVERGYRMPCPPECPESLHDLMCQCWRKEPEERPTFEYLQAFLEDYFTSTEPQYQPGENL
MAP4K2, sequence (Q12851 whole entry): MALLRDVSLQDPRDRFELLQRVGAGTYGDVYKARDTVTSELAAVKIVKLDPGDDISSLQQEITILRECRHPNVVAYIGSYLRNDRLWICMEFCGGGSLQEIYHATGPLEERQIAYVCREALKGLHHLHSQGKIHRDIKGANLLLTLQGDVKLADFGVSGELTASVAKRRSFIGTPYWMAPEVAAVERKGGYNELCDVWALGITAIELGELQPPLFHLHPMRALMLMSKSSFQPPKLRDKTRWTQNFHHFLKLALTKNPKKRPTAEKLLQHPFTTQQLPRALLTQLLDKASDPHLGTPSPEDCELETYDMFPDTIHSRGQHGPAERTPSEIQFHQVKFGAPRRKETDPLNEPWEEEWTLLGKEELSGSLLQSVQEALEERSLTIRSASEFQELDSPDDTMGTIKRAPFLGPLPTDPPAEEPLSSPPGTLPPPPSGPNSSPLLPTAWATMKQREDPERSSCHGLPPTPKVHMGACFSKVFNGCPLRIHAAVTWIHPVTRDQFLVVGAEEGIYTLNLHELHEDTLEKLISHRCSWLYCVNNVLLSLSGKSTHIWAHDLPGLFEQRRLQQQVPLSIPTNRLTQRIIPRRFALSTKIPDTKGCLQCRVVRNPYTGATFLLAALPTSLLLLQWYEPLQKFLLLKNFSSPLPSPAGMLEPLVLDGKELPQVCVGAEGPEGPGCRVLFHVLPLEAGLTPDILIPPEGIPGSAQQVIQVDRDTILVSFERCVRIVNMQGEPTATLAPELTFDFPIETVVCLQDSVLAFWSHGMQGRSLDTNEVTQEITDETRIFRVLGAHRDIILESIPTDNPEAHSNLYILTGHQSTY
EPH-A8, sequence (P29322 28-1005): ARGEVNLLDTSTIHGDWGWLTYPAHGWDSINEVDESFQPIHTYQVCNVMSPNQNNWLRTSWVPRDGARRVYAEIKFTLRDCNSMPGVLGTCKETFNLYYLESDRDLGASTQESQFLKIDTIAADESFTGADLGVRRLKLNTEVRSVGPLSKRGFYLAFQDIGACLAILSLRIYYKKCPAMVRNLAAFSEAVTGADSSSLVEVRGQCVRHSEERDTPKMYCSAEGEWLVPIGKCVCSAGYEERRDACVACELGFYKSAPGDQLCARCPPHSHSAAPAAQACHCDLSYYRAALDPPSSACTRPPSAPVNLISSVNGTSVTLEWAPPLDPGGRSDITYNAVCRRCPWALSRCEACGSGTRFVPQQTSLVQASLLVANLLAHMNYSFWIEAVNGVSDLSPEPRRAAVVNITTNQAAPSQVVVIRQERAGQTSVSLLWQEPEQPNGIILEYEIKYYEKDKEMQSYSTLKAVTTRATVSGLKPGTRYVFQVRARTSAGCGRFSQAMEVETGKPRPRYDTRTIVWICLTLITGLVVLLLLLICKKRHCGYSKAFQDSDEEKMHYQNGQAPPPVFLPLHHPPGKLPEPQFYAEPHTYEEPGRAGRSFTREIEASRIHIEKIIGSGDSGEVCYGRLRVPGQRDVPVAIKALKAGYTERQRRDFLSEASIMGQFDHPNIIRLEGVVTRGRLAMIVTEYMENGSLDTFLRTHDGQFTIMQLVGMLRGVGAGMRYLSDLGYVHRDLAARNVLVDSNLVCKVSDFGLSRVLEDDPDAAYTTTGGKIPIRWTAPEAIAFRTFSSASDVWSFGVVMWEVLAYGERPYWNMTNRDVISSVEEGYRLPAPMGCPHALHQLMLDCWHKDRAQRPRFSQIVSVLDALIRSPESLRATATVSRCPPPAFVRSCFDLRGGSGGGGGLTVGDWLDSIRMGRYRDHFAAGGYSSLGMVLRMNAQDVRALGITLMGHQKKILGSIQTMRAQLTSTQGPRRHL
SIK, sequence (P57059 whole entry): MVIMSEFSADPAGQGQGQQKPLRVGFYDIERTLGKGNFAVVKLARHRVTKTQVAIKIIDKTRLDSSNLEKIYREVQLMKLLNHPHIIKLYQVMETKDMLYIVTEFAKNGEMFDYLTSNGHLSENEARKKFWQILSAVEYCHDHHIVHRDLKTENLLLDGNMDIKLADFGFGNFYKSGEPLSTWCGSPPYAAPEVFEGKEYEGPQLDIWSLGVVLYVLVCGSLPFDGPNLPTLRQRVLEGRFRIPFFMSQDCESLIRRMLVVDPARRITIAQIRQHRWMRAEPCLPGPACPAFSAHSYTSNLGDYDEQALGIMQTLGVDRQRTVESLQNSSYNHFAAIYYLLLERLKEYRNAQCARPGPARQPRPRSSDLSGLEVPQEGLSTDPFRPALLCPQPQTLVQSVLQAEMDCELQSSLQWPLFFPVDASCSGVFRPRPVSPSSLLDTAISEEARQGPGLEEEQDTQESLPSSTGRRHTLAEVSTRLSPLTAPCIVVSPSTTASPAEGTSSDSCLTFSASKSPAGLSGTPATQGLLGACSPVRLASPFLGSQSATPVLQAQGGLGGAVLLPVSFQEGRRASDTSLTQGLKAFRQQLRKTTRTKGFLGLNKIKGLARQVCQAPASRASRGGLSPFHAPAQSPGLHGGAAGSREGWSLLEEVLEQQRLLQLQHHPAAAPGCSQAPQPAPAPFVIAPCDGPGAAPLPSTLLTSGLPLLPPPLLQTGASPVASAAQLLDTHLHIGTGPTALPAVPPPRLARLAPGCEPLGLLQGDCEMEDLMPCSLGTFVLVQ
MEK2, sequence (P36507 whole entry): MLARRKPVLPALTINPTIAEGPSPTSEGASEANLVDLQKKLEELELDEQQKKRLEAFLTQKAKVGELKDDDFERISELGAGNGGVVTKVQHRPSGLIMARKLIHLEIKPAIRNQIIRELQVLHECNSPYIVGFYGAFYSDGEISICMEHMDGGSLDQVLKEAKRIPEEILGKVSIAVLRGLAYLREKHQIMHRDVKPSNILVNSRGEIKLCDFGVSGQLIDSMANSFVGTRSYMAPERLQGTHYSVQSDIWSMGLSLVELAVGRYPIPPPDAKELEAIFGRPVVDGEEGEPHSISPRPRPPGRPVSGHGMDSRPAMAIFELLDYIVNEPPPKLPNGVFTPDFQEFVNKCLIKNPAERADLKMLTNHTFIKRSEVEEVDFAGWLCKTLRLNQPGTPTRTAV
HIPK3, sequence (Q9H422 whole entry): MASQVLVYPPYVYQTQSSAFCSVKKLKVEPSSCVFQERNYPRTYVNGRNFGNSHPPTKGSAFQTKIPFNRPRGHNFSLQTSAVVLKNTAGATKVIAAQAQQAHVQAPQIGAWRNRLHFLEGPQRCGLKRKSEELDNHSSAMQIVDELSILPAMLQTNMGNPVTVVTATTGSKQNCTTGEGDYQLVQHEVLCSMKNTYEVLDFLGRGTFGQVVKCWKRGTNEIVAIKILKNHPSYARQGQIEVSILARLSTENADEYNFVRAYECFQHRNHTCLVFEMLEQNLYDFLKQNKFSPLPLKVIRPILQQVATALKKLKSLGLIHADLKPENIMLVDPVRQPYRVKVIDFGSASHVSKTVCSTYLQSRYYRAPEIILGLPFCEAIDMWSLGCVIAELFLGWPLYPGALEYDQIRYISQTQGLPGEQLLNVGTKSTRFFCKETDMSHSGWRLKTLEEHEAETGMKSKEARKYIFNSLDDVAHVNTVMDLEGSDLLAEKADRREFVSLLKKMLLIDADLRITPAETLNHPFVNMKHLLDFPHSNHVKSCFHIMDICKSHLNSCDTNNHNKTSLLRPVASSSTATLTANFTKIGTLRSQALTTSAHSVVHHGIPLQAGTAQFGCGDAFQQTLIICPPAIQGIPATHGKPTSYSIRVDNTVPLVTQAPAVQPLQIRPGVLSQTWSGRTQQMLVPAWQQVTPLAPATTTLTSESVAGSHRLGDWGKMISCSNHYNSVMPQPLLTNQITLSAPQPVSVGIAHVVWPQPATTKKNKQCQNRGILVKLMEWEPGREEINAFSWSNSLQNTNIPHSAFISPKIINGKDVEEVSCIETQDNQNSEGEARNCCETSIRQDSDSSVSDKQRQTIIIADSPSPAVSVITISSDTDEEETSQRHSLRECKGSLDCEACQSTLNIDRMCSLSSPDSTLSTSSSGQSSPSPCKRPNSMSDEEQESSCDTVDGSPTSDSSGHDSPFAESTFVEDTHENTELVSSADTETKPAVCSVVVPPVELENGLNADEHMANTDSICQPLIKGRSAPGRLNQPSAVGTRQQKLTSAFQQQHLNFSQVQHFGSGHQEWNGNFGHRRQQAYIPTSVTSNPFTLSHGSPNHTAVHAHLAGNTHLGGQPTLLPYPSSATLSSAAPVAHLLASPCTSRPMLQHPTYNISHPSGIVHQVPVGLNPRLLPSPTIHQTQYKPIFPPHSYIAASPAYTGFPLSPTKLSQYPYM

inhibition at 5 µM [1]: ≥ 50%
inhibition at 5 µM [2]: ≥ 50%
inhibition at 5 µM [3]: ≥ 50%
inhibition at 5 µM [4]: ≥ 50%
inhibition at 5 µM [5]: ≥ 50%
inhibition at 5 µM [6]: ≥ 50%
inhibition at 5 µM [7]: ≥ 50%
inhibition at 5 µM [8]: ≥ 50%
inhibition at 5 µM [9]: ≥ 50%
inhibition at 5 µM [10]: ≥ 50%
inhibition at 5 µM [11]: ≥ 50%
inhibition at 5 µM [12]: ≥ 50%
inhibition at 5 µM [13]: ≥ 50%
inhibition at 5 µM [14]: ≥ 50%
inhibition at 5 µM [15]: ≥ 50%
inhibition at 5 µM [16]: ≥ 50%
inhibition at 5 µM [17]: ≥ 50%
inhibition at 5 µM [18]: ≥ 50%
inhibition at 5 µM [19]: ≥ 50%
inhibition at 5 µM [20]: ≥ 50%
inhibition at 5 µM [21]: ≥ 50%
inhibition at 5 µM [22]: ≥ 50%
inhibition at 5 µM [23]: ≥ 50%
inhibition at 5 µM [24]: ≥ 50%
inhibition at 5 µM [25]: ≥ 50%
inhibition at 5 µM [26]: ≥ 50%
inhibition at 5 µM [27]: ≥ 50%
inhibition at 5 µM [28]: ≥ 50%
Structure (SMILES): CNC(=O)c1cc(Oc2ccc(NC(=O)c3nc(C(F)(F)F)[nH]c3-c3ccc(F)cc3)cc2)ccn1 [Inhibitor I-6, 4-(4-{[5-(4-Fluoro-phenyl)-2-trifluoromethyl-3H-imidazole-4-carbonyl]-amino}-phenoxy)-pyridine-2-carboxylic acid methylamide]

Time Dependence Observed? Aurora A ([29]; 15 vs 60 Min preincubation): No
IC50 ([29]; preincubation 15 Min): 2740 nM
IC50 ([29]; preincubation 60 Min): 2630 nM
Structure (SMILES): Cc1ccc(NC(=O)c2nc(S(C)(=O)=O)[nH]c2-c2ccc(F)cc2)cc1Nc1nccc(-c2cccnc2)n1 [Inhibitor I-14, 3-(4-(pyridin-3-yl)-pyrimidinyl-2-yl)amino-4-methyl-analine, 5-(4-Fluorophenyl)-2-(methylsulfonyl)-1H-imidazole-4-carboxamide]

Structure (SMILES): Cc1ccc(-c2nc(C(F)(F)F)[nH]c2C(=O)Nc2ccc(C)c(Nc3ccc4ncn(C)c(=O)c4c3)c2)cc1F [KIN-038]
inhibition of FGFR3 [30]: X (X > 25% @ 1 μM)
